According to paper PMC11003925, “Antimicrobial activity and properties of de novo design of short synthetic lipopeptides” (Folia Microbiologica, 2024):
Values after ≈ are worked out from the molar mass of the structure shown. Residues, ends and D or L forms follow the SMILES beside them. *: point of attachment. Palmitoyl = CCCCCCCCCCCCCCCC(=O)*

How the values were obtained:
E. faecalis DBM 3075 = type: cell-based
E. coli DBM 3001 = type: cell-based
HepG2 = test: Cytotoxicity assay (xCELLigence impedance); type: cell-based, human; conditions: 24 h exposure
HEK293T = test: Cytotoxicity assay (xCELLigence impedance); type: cell-based, human; conditions: 24 h exposure

MIC (E. faecalis DBM 3075; DBM 3075, 24 h): 32.6 µg/mL (≈ 37 µM) | IC50 (E. faecalis DBM 3075; DBM 3075, 25 h): 40 µg/mL (≈ 45.4 µM) | MIC (E. coli DBM 3001; DBM 3001, 24 h): 78.9 µg/mL (≈ 89.6 µM) | IC50 (E. coli DBM 3001; DBM 3001, 25 h): 100.0 µg/mL (≈ 114 µM)
Structure (SMILES): CCCCCCCCCCCCCCCC(=O)N[C@@H](CC(C)C)C(=O)N[C@H](C(=O)N[C@@H](CCCCN)C(=O)N[C@@H](CCCNC(=N)N)C(=O)N[C@@H](C)C(=O)NCC(N)=O)C(C)C [SHP-1.2, PAL-LVKRAG-NH2] (Palmitoyl-LVKRAG-NH2)
% inhibition (HepG2; c 50 µg/mL): 4.1 ± 0.6% | % inhibition (HepG2; c 100 µg/mL): 42.2 ± 6.3% | % inhibition (HepG2; c 200 µg/mL): 67.9 ± 10.2% | % inhibition (HEK293T; c 50 µg/mL): 37.6 ± 5.6% | % inhibition (HEK293T; c 100 µg/mL): 77.8 ± 11.7% | % inhibition (HEK293T; c 200 µg/mL): 73.1 ± 11.0%
